Laboratory results published in patent US20060252723A1, “Combined therapy utilizing reduction of DNA methyltransferase expression and/or activity and interferon” (Methylgene, Inc. The Cleveland Clinic Foundation, priority 2005, published 2006).

What was measured:
[1] = system: ACHN cells; assay: TUNEL flow cytometric analysis of apoptosis; assay type: cell-based, human; details: for resistance to IFN-induced apoptosis after pretreatment: FIG. 2A; for apoptosis, agent alone: FIG. 2B
Method: After the indicated time of DNMT1 inhibition cells were plated at 5000 cells/cm^2 for TUNEL assay with IFNs added 16 hr after plating. Four to 5 days after IFN administration cells were harvested and processed according to the manufacturer's instructions for TUNEL flow cytometric analysis (BD Pharmingen, San Diego, Calif.).

[2] = system: RASSF1A; assay: RT-PCR for RASSF1A; assay type: cell-based, human; details: ACHN cells; data not shown
[3] = system: ACHN cells; assay: real-time RT-PCR for stat1, stat2 genes; assay type: cell-based, human
[4] = system: ACHN cells; assay: cDNA array analysis (Affymetrix U133A); assay type: cell-based, human
Description: To identify additional genes reactivated through DNA demethylation and of potential importance for the sensitization to IFN-induced apoptosis we performed cDNA array analysis with RNA harvested from ACHN cells 24 hr after the 8th DNMT1 AS transfection and 16 hr after 50 U/ml IFN β 1a treatment. RNA was harvested as mentioned above using Trizol (Invitrogen, Carlsbad, Calif.) method followed by transcription into cRNA, according to Affymetrix (Santa Clara, Calif.) recommendations for U133A array hybridization. Expression was analyzed using Affymetrix software.

[5] = system: RASSF1A promoter region; assay: methylation specific PCR of RASSF1A; assay type: cell-based, human; details: ACHN cells
Method: One microgram of genomic DNA, harvested with a blood DNA mini kit (Quiagen, Valencia, Calif.), was used for bisulfite modification with the CpGenome kit (Chemicon International, Temecula, Calif.) according to the manufacturer's instructions with final resuspension in 20 μl of 10 mM Tris/Ci, pH 8.5. Four μl of bisulfite modified DNA was used per 25 μl MSP reaction. Primers for RASSF1A MSP as published (15) were (5′ to 3′): M forward: GGG TTT TGC GAG AGC GCG (SEQ ID NO:41), M reverse: GCC AAG CGC AAA CAA TCG (SEQ ID NO:42), U forward: GGT TIT GTG AGA GTG TGT TTA G (SEQ ID NO:43), U reverse: AAACCAAACACAAACAATCAC (SEQ ID NO:44). PCR settings for methylated (M) primer pair were denaturation at 95° C. for 5 min, followed by 35 cycles with a 1 min denaturation step, 30 sec annealing at 60° C., and extension at 72° C. for 30 sec. Final extension after 35 cycles was at 72° C. for 4 min. For sequences specific for unmethylated (U) DNA settings were the same except for annealing at 55° C.

[6] = target: T1, DNMT1 protein (Homo sapiens, UniProt P26358); assay: DNMT1 protein immunoblot after DNMT1 AS or 5-AZA-dC treatment; assay type: cell-based; details: ACHN cells; 40 nM DNMT1 AS daily over 9 days or 200 nM 5-AZA-dC daily over 4 days; protein 4, 24, 48 hrs after last treatment
T1 construct: endogenous in cells; host or cells: ACHN renal cell carcinoma cells
Method: ACHN Renal cell carcinoma cells were cultured at 37° C. in 5% CO2 using Minimum Essential Medium (GIBCO, Invitrogen, Carlsbad, Calif.) with 0.1 mM non-essential amino acids (GIBCO), 1.0 mM pyruvate (GIBCO), 10% fetal bovine serum, penicillin G (50 U/ml), and streptomycin (50 μg/ml). WM9 melanoma cells (13) were grown in RPMI medium (GIBCO) containing 10% fetal bovine serum, penicillin G (50 U/ml), and streptomycin (50 μg/ml) under the same incubator conditions.
To selectively downregulate DNMT1, cells were transfected with MG98 (MethylGene, Quebec, Canada), a second-generation 4×4 2′methyl phosphorothioate oligonucleotide antisense against the 3′ UTR of DNMT1 mRNA (5′-[…]-3) or mismatch (underlined) control oligonucleotide (5′-[…]-3′) (SEQ ID NO:40) at indicated concentrations starting one day after plating at 15000 cells/cm^2. Transfections were performed daily with 6.25 μg/ml Lipofectin (Invitrogen, Carlsbad, Calif.) in OptiMem (GIBCO, Invitrogen, Carlsbad, Calif.) over 4 hr. Before and after transfections cells were washed once with PBS. Every second day cells were replated at 15000 cells/cm^2 four hr after the preceding transfection. 5-AZA-dC (Sigma-Aldrich, St Louis, Mo.) stock solution (100 mM) in DMSO and working solutions for one time use in PBS (1 mM) were stored at −20° C. […]

[7] = system: ACHN cells; assay: growth of ACHN cells (data not shown); assay type: cell-based, human
[8] = Phase I studies of MG98, toxicity
[9] = system: tumour xenograft models; assay: tumour xenograft models; assay type: in vivo; details: daily dosing compared to intermittent administration
[10] = system: caspase 3; assay: caspase 3 activity assay; assay type: cell-based, human; details: FIG. 3; pretreatment alone

T1 sequence (P26358 whole entry): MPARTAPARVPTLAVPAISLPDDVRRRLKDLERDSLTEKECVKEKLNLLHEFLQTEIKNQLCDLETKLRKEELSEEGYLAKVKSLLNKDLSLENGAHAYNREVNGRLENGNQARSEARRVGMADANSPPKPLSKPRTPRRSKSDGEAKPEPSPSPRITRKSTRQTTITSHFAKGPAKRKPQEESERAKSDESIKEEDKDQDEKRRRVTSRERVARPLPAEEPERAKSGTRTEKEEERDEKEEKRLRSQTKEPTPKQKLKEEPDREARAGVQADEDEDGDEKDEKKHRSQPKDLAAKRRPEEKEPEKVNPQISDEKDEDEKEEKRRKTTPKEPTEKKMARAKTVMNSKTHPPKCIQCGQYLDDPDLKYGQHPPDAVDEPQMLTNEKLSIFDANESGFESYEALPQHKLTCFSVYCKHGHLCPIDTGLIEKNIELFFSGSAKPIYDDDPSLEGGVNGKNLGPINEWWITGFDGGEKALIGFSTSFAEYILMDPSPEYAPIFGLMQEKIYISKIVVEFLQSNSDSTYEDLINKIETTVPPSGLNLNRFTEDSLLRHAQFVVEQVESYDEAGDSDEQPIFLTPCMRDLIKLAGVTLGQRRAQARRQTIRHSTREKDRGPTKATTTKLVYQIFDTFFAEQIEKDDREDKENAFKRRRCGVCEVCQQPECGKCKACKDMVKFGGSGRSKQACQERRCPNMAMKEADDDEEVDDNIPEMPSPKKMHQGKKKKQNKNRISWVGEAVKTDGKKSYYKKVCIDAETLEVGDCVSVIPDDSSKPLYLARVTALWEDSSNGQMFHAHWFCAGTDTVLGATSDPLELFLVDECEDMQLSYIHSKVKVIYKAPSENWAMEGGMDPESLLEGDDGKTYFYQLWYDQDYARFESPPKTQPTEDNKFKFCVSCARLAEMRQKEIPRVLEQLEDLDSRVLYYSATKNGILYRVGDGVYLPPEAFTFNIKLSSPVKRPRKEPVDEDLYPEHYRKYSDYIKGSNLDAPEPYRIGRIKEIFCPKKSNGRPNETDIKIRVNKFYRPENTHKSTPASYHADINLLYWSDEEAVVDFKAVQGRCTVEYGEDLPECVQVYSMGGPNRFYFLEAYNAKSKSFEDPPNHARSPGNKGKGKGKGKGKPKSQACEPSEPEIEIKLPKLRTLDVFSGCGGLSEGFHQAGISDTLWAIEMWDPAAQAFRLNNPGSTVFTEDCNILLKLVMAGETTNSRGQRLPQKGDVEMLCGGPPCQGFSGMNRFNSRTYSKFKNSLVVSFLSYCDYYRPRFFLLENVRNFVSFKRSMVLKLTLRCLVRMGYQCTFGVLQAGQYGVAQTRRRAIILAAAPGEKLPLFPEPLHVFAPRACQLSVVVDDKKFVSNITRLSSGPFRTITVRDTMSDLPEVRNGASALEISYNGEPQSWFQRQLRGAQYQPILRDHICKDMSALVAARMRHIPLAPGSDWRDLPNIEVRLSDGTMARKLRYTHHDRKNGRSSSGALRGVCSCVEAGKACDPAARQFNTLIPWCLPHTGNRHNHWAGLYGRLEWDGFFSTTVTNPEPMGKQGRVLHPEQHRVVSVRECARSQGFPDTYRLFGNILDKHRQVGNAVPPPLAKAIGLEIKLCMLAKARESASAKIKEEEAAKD

5′-TTAATGTAACCTAAGGTCAA-3′ (listed as DNA, chemistry not given here) [MM, mismatch control oligonucleotide]
cells apoptotic on TUNEL staining (up to) ([1]; 5-AZA-dC over 24 days or oligonucleotide transfection over 6 to 8 days, then 50 U/ml IFN α or IFN β, 4-5 days after IFN): not
resistance to IFN-induced apoptosis after pretreatment [1]: did not
apoptosis, agent alone [1]: did not result in significant apoptosis
amplification of full length RASSF1A cDNA [2]: no band

5′-UUCATGTCAGCCAAGGCCAC-3 (all phosphorothioate, sugars by position and methylation of C not given here; 2'-O-methyl gapmer) [MG98, second-generation 4×4 2′methyl phosphorothioate oligonucleotide antisense against the 3′ UTR of DNMT1 mRNA]
resistance to IFN-induced apoptosis after pretreatment [1]: overcome
apoptosis, agent alone [1]: did not result in significant apoptosis
stat1 expression, fold change over untreated [3]: 0.27 fold
stat2 expression, fold change over untreated [3]: 1.05 fold
number of genes increased at least two-fold compared to the mismatch oligonucleotide ([4]; DNMT1 AS alone, data not shown): One hundred and thirty-seven
expression of genes known to be involved in IFN-induced apoptosis ([4]; Table 2): not significantly altered
reduction in DNMT1 expression ([4]; compared to mismatch oligonucleotide): 94%
expression of other DNMTs ([4]; compared to mismatch oligonucleotide, data not shown): without affecting expression of other DNMTs
increase of IFN-stimulated gene IF127 over MM treated cells ([4]; p<0.045): at least two-fold
Fold change in expression, Caspase 4 ([4]; relative to MM): 1.41 (MI) fold
Fold change in expression, HSXIAPAF1 (XAF1) ([4]; relative to MM): 3.36 (NS) fold
Fold change in expression, IRF1 ([4]; relative to MM): 1.32 (NS) fold
Fold change in expression, OAS1 ([4]; relative to MM): 0.80 (NS) fold
Fold change in expression, PRKR (PKR) ([4]; relative to MM): 0.71 fold
Fold change in expression, Stat1 ([4]; relative to MM): 0.60 fold
Fold change in expression, Stat2 ([4]; relative to MM): 0.68 (NS) fold
Fold change in expression, TNFSF10 (TRAIL/Apo2L) ([4]; relative to MM): 0.93 (NS) fold
methylation of RASSF1A promoter region [5]: led to demethylation
DNMT1 protein [6]: suppressed up to 48 hrs
growth [7]: reduced
dose levels resulting in frequent adverse events ([8]; Phase I, 21-day infusion): above 80 mg/m^2/day
toxicity seen in nephrectomized patients ([8]; intermittent schedule, 160 mg/m^2/day is 44% below the dose concerned): grade 3 transaminitis
anti-tumour activity [9]: greatest anti-tumour activity
amplification of full length RASSF1A cDNA [2]: single band
caspase 3 activity [10]: increased caspase 3 activity

Nc1ncn([C@H]2C[C@H](O)[C@@H](CO)O2)c(=O)n1 [5-AZA-dC, 5-aza-deoxycytidine, reference compound]
resistance to IFN-induced apoptosis after pretreatment [1]: overcome
TUNEL positive ([1]; agent alone, no IFN, 5-AZA-dC 4 days): 20%
stat1 expression, fold change over untreated [3]: 0.57 fold
stat2 expression, fold change over untreated [3]: 1.38 fold
DNMT1 protein [6]: suppressed up to 48 hrs
caspase 3 activity [10]: increased caspase 3 activity
